A short description of data set [1]: Solubility and storage stability (crystallization) of tofacitinib in gels and liniments with and without minoxidil. The data set is classed as physicochemical. As to conditions: in water and an organic solvent, gel kept stable.
Method: (1) Different proportions of tofacitinib were set, a mixture of water and an organic solvent was used as a mixed solvent, and a single gel and a compound gel, and a single liniment and a compound liniment were prepared for comparatively investigating dissolved states of tofacitinib in the preparations with and without addition of minoxidil. The samples were stored at the room temperature for 1 month after the preparations were prepared, and stability of tofacitinib was evaluated by whether crystallization occurred or not during the storage.
(2) For an unstable preparation which is easy to precipitate tofacitinib crystals during the storage, adjustments were made by adding an organic solvent component, a surfactant, a crystallization inhibitor, or a thickening agent, increasing an amount of minoxidil, for comparatively investigating improvement of the stability of tofacitinib in the preparations with the above methods.
Solubility: (∘: incompletely soluble; √: completely soluble); and stability: (x: crystallization and precipitation; √: non-crystallization) […]
The format of data set [2] is physicochemical. As to conditions: for Dissolution condition: 100 parts per 1 part API, 30 min, heating (60° C.), after cooling. From the text:
Dissolution condition and dissolution required for quantifying the API in a quantitive solvent were used as preliminary evaluation indexes, and a solvent capable of dissolving both active ingredients is preferred. Icon meaning: x: insoluble (this system is a white opaque suspension with visible white solid particles); ∘: incompletely soluble (this system is partially transparent, with white visible bulk solids or suspended solids); √ completely soluble (the system is a completely transparent solution, without suspended substances and solid insoluble substances); and /: not investigated.

Counter-ions that a name gives are not always drawn. Like-named read-outs stand apart in the source and are kept apart here.

As for `C[C@@H]1CCN(C(=O)CC#N)C[C@@H]1N(C)c1ncnc2[nH]ccc12` [Tofacitinib citrate], the “Amount of tofacitinib (calculated by the prototype) dissolved by minoxidil” value in data set [1] was 0.05-1.0 times the amount of minoxidil. Besides, in data set [2], the “Solubility in single solvents (in words)” value was “poor solubility”. In addition, the Dissolution condition entry in data set [2] (Example 16-b: Propylene glycol:water = 1:9 (w/w)), in data set [2] (Example 16-c: Propylene glycol:water = 3:7 (w/w)), in data set [2] (Example 16-d: Propylene glycol:water = 5:5 (w/w)), in data set [2] (Example 16-e: Propylene glycol:water = 7:3 (w/w)), in data set [2] (Example 16-f: Propylene glycol:water = 9:1 (w/w)) and in data set [2] (Example 17: Propylene glycol:water:ethanol = 5:2:3 (w/w)) was “✓” in each case.

These data come from patent US12539301B2, “Compound external preparation for treating alopecia areata and preparation method therefor” (CHANGSHA JINGYI PHARMACEUTICAL TECHNOLOGY CO., LTD, priority 2020, dated 2026).
